Experimental data taken from patent publication US20230338363A1, “COMBINATION CHEMO-IMMUNOTHERAPY FOR PANCREATIC CANCER USING THE IMMUNOGENIC EFFECTS OF AN IRINOTECAN SILICASOME NANOCARRIER PLUS ANTI-PD-1” (The Regents of the University of California, priority 2020, published 2023).
Counter-ions that a name gives are not always drawn.

Key:
[1] = test system: KPC tumor; assay: Vaccination experiment with dying chemo-treated KPC cells; assay type: in vivo, mouse
Experimental: The vaccination schedule is highlighted in FIG. 2, panel C. Eight million KPC cells were seeded in a tissue culture dish. After cellular attachment, IRIN (300 µM or OX (500 µM were added for 24 h. Cells were collected and washed before resuspended in 0.8 mL cold PBS. For vaccination, each mouse received subcutaneous (SC) injection of a 100 µL suspension of chemo-treated cells in the right flank. Control animals received SC injection with 0.1 mL PBS. The vaccination was repeated after 7 days. Fourteen days after the 1st injection, the animals received SC injection of normal KPC cells (1 million cells in 0.1 mL PBS) in the contralateral (left) flank. Tumor growth was measured by a digital caliper every 2-3 days, and the tumor volume calculated according to the formula: length × width^2 /2. Animals were sacrificed on day 26 and the tumors were collected, weighed and fixed in 10% formalin, followed by paraffin embedding and sectioning to derive to 4 µm thick slices for IHC analysis. Primary antibodies to CD8 (#14-0808-82) and FoxP3 (#13-5773-82) were purchased from ThermoFisher. IHC staining was performed in the UCLA Translational Pathology Core Laboratory (TPCL). The slides were scanned and images assessed by using Aperio ImageScope software (Leica).

[2] = test system: KPC cells; assay: ER stress: CHOP and cleaved caspase-3 western blotting, total ROS, intracellular Ca2+ flux; assay type: cell-based, mouse; conditions: 24 h
Experimental: Intracellular ROS production was determined by a fluorescence-based ROS Kit (Abcam, ab186027) in KPC cells. This assay measures total ROS species according to vendor’s instructions. This assay is frequently used in cell biology to show the contribution of ROS in the context of ER stress and autophagy^3. Briefly, KPC cells were treated with IRIN (300 µM), OX (500 µM) or TUN (10 µM) for 24 h. Images were captured using a fluorescence microscope. Signal intensity was quantified by Image J software. At least three representative images were analyzed for each treatment. Data represents mean ± SD, n=3. *p<0.05, ***p<0.001, compared to PBS group (1-way ANOVA followed by a Tukey’s test). Bar is 50 µm.
Intracellular Ca^2+ flux was assessed by a Fluo 4 AM assay in KPC cells. The cells were treated with IRIN (300 µM), OX (500 µM) or TUN (10 µM) for 24 h. Images were captured using a fluorescence microscope, followed by data analysis using the Image J software. At least three representative images were analyzed for each treatment. Data represents mean ± SD, n=3. **p<0.01, ***p<0.001, compared to PBS group (1-way ANOVA followed by a Tukey’s test). Bar is 50 µm.
KPC cells were treated with IRIN silicasome at drug dose of 75 µM and 300 µM for 24 hours. PBS and empty silicasome (that is equivalent to drug dose of 300 µM) were included as control. Ca^2+ efflux (panel A) and total ROS (panel B) measurements were performed similar to FIGS. 14 and 15. Data represents mean ± SD, n=3. *p<0.05, **p<0.001, n.s., not significant (1-way ANOVA followed by a Tukey’s test). Panel C) In a separate experiment, KPC cells were seeded in to a 6-well plate, followed by the treatment using silicasome w/wo IRIN (300 µM) for 48 hours. ER marker, CHOP protein, was assayed by western blotting similar to FIG. 2, panel A
Western blotting was also used to detect the ER stress marker, CHOP, and Cleaved Caspase-3 (CC-3). In this case, KPC cells were treated with IRIN at the indicated concentrations (75- 600 µM) for 24 h. In a separate experiment, KPC cells were treated with IRIN (300 µM) and tunicamycin (10 µM) for 4 h. Primary antibodies were purchased from Cell Signaling Technology: β-actin (#3700), vinculin (#13901), CHOP (#2895), and Cleaved Caspase-3 (#9664).

[3] = test system: orthotopic KPC tumor; assay: Survival experiment, IRIN silicasome plus anti-PD-1 in orthotopic KPC tumor model; assay type: in vivo, mouse
Experimental: Panel A) Explanation of the KPC model, including orthotopic implant in the pancreas and technical development of the primary tumor and metastases that can be followed by IVIS imaging. Animals were sacrificed according to the moribund criteria shown. Panel B). Details of the survival experiment in tumor-bearing mice (n = 5-7), which were treated with free IRIN or the silicasome at an IRIN dose equivalent of 40 mg/kg IV every 3- or 4-days, with or without IP administration of 100 µg anti-PD-1 antibody, for a total of six administrations. Please notice that the antibody was administered two days after IRIN injection. Saline and anti-PD-1 antibody alone were used as controls. Kaplan-Meier plots were used to display the survival rate of the different animal groups (*p<0.05, Log Rank test).
The KPC-derived orthotopic tumor model in immunocompetent B6129SF1/J mouse was established as described in FIG. 4, panel A. ^[16] Briefly, 30 µL of DMEM/Matrigel (1:1 v/v), containing ~1×10^6 KPC-luc cells, was injected into the tail of the pancreas in female B6129SF1/J mice (8~10 weeks) by a short survival surgery procedure.^[16] In the first survival experiment (FIG. 4, panel B), tumor-bearing mice were randomly assigned into 6 groups (n = 5-7) and received IV injection of the IRIN formulations at API dose of 40 mg/kg. Anti-PD-1 antibody was injected at 100 µg/animal IP. To assess survival rate, animals were monitored daily up to the stage of spontaneous death or approaching moribund status (defined in FIG. 4, panel A)^[16, 36]. The survival data were plotted as Kaplan-Meier curves, followed by data analysis to derive mean survival time. Statistical analysis and p values were obtained by Log Rank testing (Mantel-Cox), using GraphPad Prism 7.00 software.

## CCc1c2c(nc3ccc(OC(=O)N4CCC(N5CCCCC5)CC4)cc13)-c1cc3c(c(=O)n1C2)COC(=O)[C@]3(O)CC [IRIN, Irinotecan hydrochloride trihydrate]
[1]; KPC cells treated with 300 µM IRIN or 500 µM OX, p <0.05
  growth of tumor on the opposite flank vs PBS control: improved the shrinkage of the tumor on the opposite flank significantly
[1]; day 26
  tumor disappearance at harvesting: total tumor disappearance in one IRIN-treated animal
[1]; harvested tumors, day 26
  CD8+ staining number (IHC): no significant increase
  CD8+/Treg cells ratio (IHC): significantly (p <0.01) increased
  FoxP3+ expression (IHC): significantly (p<0.01) decreased
[2]; IRIN 300 µM
  intracellular Ca2+ release (Fluo-4 AM assay): response profile similar to ROS production
  total ROS production: robust generation ROS production
[2]; IRIN 75-600 µM
  CHOP expression (immunoblotting): sizable and dose-dependent increase in CHOP expression
  cleaved caspase-3 (CC-3) expression: increased expression of cleaved caspase-3
[3]; IRIN 40 mg/kg IV, anti-PD-1 100 µg IP, six administrations, saline 19
  MST (median survival time): 19 days
[3]; IRIN 40 mg/kg IV, anti-PD-1 100 µg/mouse IP
  survival (Kaplan-Meier, Log Rank test): no survival benefits
[3]; vs. saline
  % ILS (% increase in life span, [(T - C)/C] × 100): 0.0%
